Assays:
[1] = test system: MCAO induced brain injury; assay: Corrected infarct volume (TTC) after MCAO, EC treatment; format: in vivo, mouse
Method: After 24 or 72 h of reperfusion, mice were anesthetized, and their brains dissected out and cut into 2-mm coronal sections. Brain slices were stained with 2,3,5-triphenyltetrazolium chloride (TTC, Sigma Co, St. […] Cerebral cortex and striatum volumes in ipsilateral necrotic lesion and contralateral normal side of the brain were measured multiplying the sum of the areas by the distance between sections. Infarct volume was indirectly calculated by subtracting the volume of intact tissue in the ipsilateral hemisphere from that of the contralateral hemisphere and expressed as the percentage of infarct area to the total hemispheric area for each slice. Epicatechin (EC) was given orally (per kilogram of body weight) through gavage and precautions were taken not only to minimize the stress to animals but also careful administration of the drug solution. For pre-treatment studies, a single dose of EC was given 90 minutes before middle cerebral artery occlusion (MCAO). […] MCAO procedure was slightly modified from the methods previously published by Shah et al. (Shah, et al. in press, 2006). […] To measure relative cerebral blood flow (CBF), mice were placed in a porcine posture on a temperature controlled heat blanket (37° C.). Under an operating microscope, a 0.5-mm diameter microfiber was glued to the skull (over the area of parietal cortex) with cyanoacrylate glue (Super Glue Gel, Ross Products, Inc.) approximately 6 mm lateral and 1 mm posterior of bregma and connected to a laser-Doppler flowmeter (DRT4, Moor Instruments Ltd, Devon, England). Mice were allowed to return to supine position and a neck midline-incision was made to expose the right common carotid artery (CCA), external carotid artery (ECA), and internal carotid arteries (ICA) after dissecting in through out thyroid glands. All the arteries were separated from the vagus nerve. A specially devised method for making 7-0 Ethilon nylon filament (Ethicon, Inc., Somarville, N.J.) with 5 mm of the tip coated with silicone (Cutter Sil Light and Universal Hardener, Heraeus Kulzer, GmbH, Hanau, Germany) was employed and the filament was introduced into the ICA through the ECA stump to block the blood circulation to MCA or circle of Willis. The filament was carefully advanced up to 11 mm from the carotid artery bifurcation or until resistance was felt. […] CFB was monitored for up to 5 minutes and mice not attaining the required drop were terminated from the study. Cortical perfusion values were expressed as a percentage relative to baseline. Animals were shifted to a humidity/temperature-controlled chamber at 32° C. to maintain the body temperature during the 90 minutes of MCA occlusion, at 37° C. For reperfusion mice were briefly anesthetizing and filament was withdrawn. After suturing the neck, midline wound mice were again returned to a humidity/temperature-controlled chamber for 2 h to maintain the body temperature at 37° C. and then later shifted to their respective cages.

[2] = previous toxicological studies (Galati et al 2006); cited from earlier work
[3] = Physiological parameters (pH, PaCO2, PaO2) of mice treated with vehicle and EC; format: in vivo, mouse; details: different drug concentrations and vehicle
Method: In a separate cohort of mice (5 WT; 5 Nrf2^−/−) that underwent an identical stroke protocol, including CBF monitoring, blood samples were collected through a PE-10 femoral artery catheter (Intramedic; BD Diagnostic Systems, Sparks, Md.) 30 minutes before MCAO, 1 hour after initiation of MCAO, and 1 hour after reperfusion. The blood was evaluated for pH, PaO2, and PaCO2 via blood gas analysis (Rapidlab 248; Chiron Diagnostic Corporation, Norwood, Mass.). In some experiments, blood was drawn intermittently at different intervals of time; 30 minutes before MCAO, 1 h after the initiation of MCAO, and 1 h after reperfusion.

[4] = test system: HO1 WT mice; assay: 72 h survival after MCAO, EC post-treatment; format: in vivo, mouse; details: EC 30 mg/kg after 2 h or 4.5 h of reperfusion, 10 survived with vehicle
[5] = test system: MCAO induced brain injury; assay: Neurological deficit score after MCAO, EC treatment; format: in vivo, mouse; details: for NDS: HO1WT mice
Excerpt: Motor deficits were graded by sensorimotor performance or neurological score by the method of Longa et al. (Stroke. 20:84-91.1989). […] (1) no deficit, (2) forelimb weakness, (3) inability to bear weight on the affected side, (4) no spontaneous motor activity. Epicatechin (EC) was given orally (per kilogram of body weight) through gavage and precautions were taken not only to minimize the stress to animals but also careful administration of the drug solution. For pre-treatment studies, a single dose of EC was given 90 minutes before middle cerebral artery occlusion (MCAO). […] MCAO procedure was slightly modified from the methods previously published by Shah et al. (Shah, et al. in press, 2006). […] To measure relative cerebral blood flow (CBF), mice were placed in a porcine posture on a temperature controlled heat blanket (37° C.). Under an operating microscope, a 0.5-mm diameter microfiber was glued to the skull (over the area of parietal cortex) with cyanoacrylate glue (Super Glue Gel, Ross Products, Inc.) approximately 6 mm lateral and 1 mm posterior of bregma and connected to a laser-Doppler flowmeter (DRT4, Moor Instruments Ltd, Devon, England). Mice were allowed to return to supine position and a neck midline-incision was made to expose the right common carotid artery (CCA), external carotid artery (ECA), and internal carotid arteries (ICA) after dissecting in through out thyroid glands. All the arteries were separated from the vagus nerve. A specially devised method for making 7-0 Ethilon nylon filament (Ethicon, Inc., Somarville, N.J.) with 5 mm of the tip coated with silicone (Cutter Sil Light and Universal Hardener, Heraeus Kulzer, GmbH, Hanau, Germany) was employed and the filament was introduced into the ICA through the ECA stump to block the blood circulation to MCA or circle of Willis. The filament was carefully advanced up to 11 mm from the carotid artery bifurcation or until resistance was felt. […] CFB was monitored for up to 5 minutes and mice not attaining the required drop were terminated from the study. Cortical perfusion values were expressed as a percentage relative to baseline. Animals were shifted to a humidity/temperature-controlled chamber at 32° C. to maintain the body temperature during the 90 minutes of MCA occlusion, at 37° C. For reperfusion mice were briefly anesthetizing and filament was withdrawn. After suturing the neck, midline wound mice were again returned to a humidity/temperature-controlled chamber for 2 h to maintain the body temperature at 37° C. and then later shifted to their respective cages.

In the case of Oc1cc(O)c2c(c1)O[C@H](c1ccc(O)c(O)c1)[C@H](O)C2 [EC, (−)-Epicatechin], the corrected infarct volume ([1]; HO1 WT mice, EC 2.5 mg/kg oral 90 min before MCAO, 24 h reperfusion, not significant) is reported as 33.8±3.3%, the corrected infarct volume ([1]; HO1 WT mice, EC 5 mg/kg oral 90 min before MCAO, 24 h reperfusion) is reported as 28.8±2.9% and the corrected infarct volume ([1]; HO1 WT mice, EC 15 mg/kg oral 90 min before MCAO, 24 h reperfusion) is reported as 24.9±3.8%. The infarct volume ([1]; HO1 WT mice, EC 30 mg/kg after 2 h of reperfusion, 72 h, vehicle 46.6±5.3, in %) was 33.5±3.2, the corrected infarct volume ([1]; HO1 WT mice, EC 30 mg/kg oral 90 min before MCAO (90 min), 24 h reperfusion, vehicle 34.2±3.4%) was 20.1±2.7% and the infarction volume ([1]; HO1WT mice, EC 30 mg/kg post-treatment (3.5 h after MCAO), 72 h survival, vehicle 46.6±5.3%) was 33.5±3.2%. It also gave an infarct volume ([1]; HO1−/− mice, EC 30 mg/kg 90 min before MCAO, 24 h reperfusion, vehicle 37.1±3.9%, not significant) of 33.8±3.2%, an infarct volume ([1]; Nrf2 WT mice, EC 30 mg/kg 90 min before MCAO, 24 h reperfusion, vehicle 31.3±1.9%) of 24.1±1.8% and a corrected infarct volume ([1]; Nrf2−/− mice, EC 30 mg/kg 90 min before MCAO, 24 h reperfusion, vehicle 44.8±4.6, not significant, in %) of 43.0±2.4. For the same molecule, the safe dose [2] was “up to 150 mg”, the “physiological parameters (pH, PaCo2, Pao2) vs vehicle” value [3] was “no differences” and the “mice surviving 72 h (of 12 per group)” value [4] was 12 mice. The neurological deficit score ([5]; HO1 WT mice, EC 2.5 mg/kg pre-treatment, no difference vs vehicle) was 3.3±0.29, the neurological deficit score ([5]; HO1 WT mice, EC 5 mg/kg pre-treatment) was 3±0.35 and the neurological deficit score ([5]; HO1 WT mice, EC 15 mg/kg pre-treatment) was 2.7±0.39. The NDS ([5]; EC 30 mg/kg 6 h post-treatment, vehicle 2.3±0.16, not significant) was 1.8±0.1, the neurological deficit score ([5]; HO1 WT mice, EC 30 mg/kg at 3.5 h, scored at 24 h of reperfusion, vehicle 3.5±0.26) was 2.8±0.3 and the neurological deficit score ([5]; HO1 WT mice, EC 30 mg/kg at 6 h, scored at 24 h of reperfusion, vehicle 3.5±0.26) was 1.8±0.1. The NDS ([5]; EC 30 mg/kg post-treatment (3.5 h after MCAO), vehicle 2.3±0.1) was 1.8±0.1, the neurological deficit score ([5]; HO1 WT mice, EC 30 mg/kg pre-treatment) was 2.5±0.25 and the neurological deficit score ([5]; Nrf2 WT mice, EC 30 mg/kg pre-treatment, 24 h, vehicle 3.1±0.26) was 2.3±0.1. The neurological deficit score ([5]; Nrf2−/− mice, EC 30 mg/kg pre-treatment, 24 h, vehicle 3.5±0.1, not significant) was 3.4±0.17.

— US20150080462A1, “COMPOSITIONS AND METHODS FOR THE TREATMENT OR PREVENTION OF DISORDERS RELATING TO OXIDATIVE STRESS” (THE JOHNS HOPKINS UNIVERSITY, priority 2005, published 2015)
